Measured values reported in patent US6420371B1, “Quinazolinone-containing pharmaceutical compositions for prevention of neovascularization and for treating malignancies” (Madasit Medical Research Services & Development Co., Ltd., priority 1997, dated 2002).
In brackets after ≈: the same amount, converted by molar mass. Several values for one entry are separate records, joined by “and”; a condition that tells them apart may be missing. Identical values can stand only once. Like-named read-outs stand apart in the source and are kept apart here.

What was measured:
[1] = system: T50 bladder carcinoma; assay: Inhibition of in vivo growth of T50 bladder carcinoma in C3H mice; conditions: for tumor volume (group mean): Halofuginone containing diet 5 mg/kg; for T50 Tumor Size: individual mice, diet containing 5 mg/kg Halofuginone, day 17
Protocol: C3H mice were divided into two groups (6 mice each). The experimental group received a diet containing 5 mg/kg of Halofuginone 3 days prior to the injection of T50 bladder carcinoma cells and during 2 weeks after. […] The right side received 0.4 * 10^5 cells, and the left side received 2 * 10^5 cells. The tumor size was estimated by measurement of tumor length in two directions, using the formula V=LW^2/2, where V is volume, L is length and W is width. At the end of the experiment at day 17, the mice were weighed, the tumors were excised and a sample of the tumor tissue was fixed and processed for histological examination.

[2] = system: EHS sarcoma; assay: Inhibition of in vivo growth of EHS tumor in C57BL/6 mice
Protocol: Animals bearing Engelbreth-Holm-Swarm (EHS) tumors were sacrificed and the tumor tissue was excised and minced under aseptic conditions. The EHS tumor is characterized by a large amount of basement membrane components. A suspension of the tumor tissue in 0.2 ml of PBS was injected subcutaneously in the dorsal posterior region of C57BL/6 male mice. The mice were divided into two groups of 10 mice each. The animals of the experimental group were fed with a diet containing 5 mg/kg Halofuginone for 3 days prior to tumor injection and during 3 weeks after. The tumor size was estimated by measurement of tumor length in two directions, using the formula V=LW^2/2. On the final day of the experiment, i.e., 20 days after tumor injector, the mice were weighed the tumors were exceed and a sample of the tumor tissue was fixed and processed for histological examination.

[3] = system: bovine aortic endothelial cells; assay: Organization of endothelial cells into capillary-like networks in type I collagen gel; type: cell-based; conditions: 0.1 μg/ml Halofuginone; bFGF 1 ng/ml and heparin 1 μg/ml
Protocol: Type I collagen was prepared from the tail tendons of adult Sprague Dawley rats. Briefly, the collagen fibers were solubilized by a slow stirring for 48 h at 4° C. in a sterile, 1/1000 (w/v) acetic acid solution (300 ml for 1 g of collagen). The resulting solution was filtered through a sterile triple gauze and centrifuged at 16,000 g for 1 h at 4° C. The supernatant was then extensively dialyzed against 1/10. DMEM and stored at 4° C. The collagen matrix gel was obtained by simultaneously raising the pH and ionic strength of the collagen solution. For this purpose, 7 vol of collagen solution were quickly mixed with 1 vol of 10X Minimum Essential Medium and 2 vol sodium bicarbonate (0.15 M) [R. F. Nicosa and A. Ottinetti, Lab. Invest, Vol. 63, pp. 115-122 (1990)]. Bovine aortic endothelial cells were seeded into 16 mm wells of a 24-well plate and allowed to grow for 24 h, to obtain a subconfluent monolayer. The culture medium was then removed and 0.4 ml of the cold collagen mixture described above were poured on top of the cell monolayer and allowed to polymerize for 10 min at 37° C. […] The reorganization of the endothelial cell monolayer was monitored and photographed with a Zeiss inverted phase contrast photomicroscope [K. Monesano, et al., J. Cell Biol., Vol. 97, pp. 1648-1652 (1983)].

[4] = system: bovine corneal endothelial cells; assay: cells; type: cell-based
Protocol: Cultures of bovine corneal endothelial cells were established from steer eyes and maintained as previously described [D. Gospodarowicz, et al., Exp. Eye Res., No. 25, pp. 75-89 (1997)]. Cells were cultured at 37° C. in 10% CO2 humidified incubators and the experiments were performed with early (3-8) cell passsages.
For preparation of the sulfate-labelled ECM (extra-cellular matrix), corneal endothelial cells were seeded into 4-well plates at a confluent density forming, within 4-6 h, a contact inhibited cell monolayer composed of closely apposed, and growth arrested cells. Under these conditions, the cells remained viable and retained their normal monolayer configuration and morphological appearance up to a concentration of 2 μg/ml halofuginone. Na2[^35S]O4 (540-590 mCi/mmol) was added (40 μCi/ml) one and five days after seeding and the cultures were incubated without medium change. At various intervals after seeding, the subendothelial ECM was exposed by dissolving (5 min., room temperature) the cell layer with PBS containing 0.5% Triton X-100 and 20 mM NH4OH, followed by four washes in PBS [I Viodavsky, et al., Cancer Res., Vol. 43, pp. 2704-2711 (1983), I. Vlodavsky, et al., Proc. Natl. Acad. Sci. USA, Vol. 84 pp. 2292-2296 (1987)]. To determine the total amount of sulfate labeled material, the BCM was digested with trypsin (25 μg/ml, 24 h, 37° C.) and the solubilized material counted in a β-counter.

[5] = system: rat mesengial cells; assay: Sulfate and glycine incorporation into rat mesengial cell ECM; type: cell-based; conditions: for inhibition at 0.05 µg/mL: 50 ng/ml Halofuginone; for inhibition at 0.2 µg/mL: 200 ng/ml Halofuginone
Protocol: Rat […] grown to confluency, 24 hours after seeding. The cells were then cultured with or without Halofuginone in the presence of either Na2^35SO4 (FIGS. 9A and 9B) or ^14C-glycine (FIGS. 9C and 9D). Eight days after sending, the cell layer was dissolved to expose the underlying ECM, washed and digested with collagenase to determine the effect of Halofuginone on CDP proteins, as shown in FIGS. 9A and 9C. The remaining material was digested with trypsin and subjected to β-scintillation counting to determine the effect of halofuginone on NCDP proteins, as shown in FIGS. 9B and 9D.

O=C(CC1NCCCC1O)Cn1cnc2cc(Br)c(Cl)cc2c1=O (stereo not drawn) [Halofuginone]
reduction of tumor size compared to control mice ([1]; C3H mice, diet 5 mg/kg Halofuginone): 70-80%
overall weight of mice ([1]; Halofuginone treated C3H mice, lower due to lower tumor burden): 24 ± 3.1 g
tumor volume (group mean) ([1]; high tumor cell dose): 1.0±0.92 cm^3
T50 Tumor Size ([1]; 0.4 * 10^5 cells s.c.): 0.730 cm^3 and 0.510 cm^3 and 0.036 cm^3 and 0.064 cm^3 and 0.150 cm^3
T50 Tumor Size ([1]; 2 * 10^5 cells s.c.): 2.0 cm^3 and 1.1 cm^3 (2×) and 0.7 cm^3 and 0.1 cm^3
tumor volume (group mean) ([1]; lower tumor cell dose): 0.29±0.28 cm^3
tumor volume (group mean) ([2]; C57BL/6 mice fed Halofuginone 5 mg/kg diet): 1.72±1.85 cm^3
reduction of tumor size compared to control mice ([2]; C57BL/6 mice, diet 5 mg/kg Halofuginone): about 75%
weight of mice ([2]; Halofuginone-fed C57BL/6 mice, nearly normal weight): 19.7 ± 0.47 g
EHS Tumor Size ([2]; individual mice, diet 5 mg/kg Halofuginone, 20 days after tumor injection): 0 cm^3 (2×) and 2.2 cm^3 and 0.04 cm^3 and 6.5 cm^3 and 3.0 cm^3 and 1.3 cm^3 (2×) and 1.2 cm^3 and 1.7 cm^3
invasion of endothelial cells into collagen gel and organization into capillary-like tubes [3]: completely inhibited
inhibition of sulfate incorporation into ECM ([4]; 1 μg/ml Halofuginone): almost complete inhibition
IC50 ([4]; Bos taurus, Endothelial cell, read-out: concentration giving 50% inhibition of sulfate incorporation into ECM): 0.2 µg/mL (≈ 0.482 µM)
concentration up to which cells remained viable with normal monolayer configuration and morphology ([4]; bovine): ≤ 2 μg/ml
inhibition at 0.05 µg/mL ([5]; read-out: inhibition of glycine incorporation, CDP proteins): ~80%
inhibition at 0.05 µg/mL ([5]; read-out: inhibition of glycine incorporation, NCDP proteins): ~80%
inhibition at 0.2 µg/mL ([5]; read-out: inhibition of sulfate incorporation, CDP proteins): ~30%
inhibition at 0.2 µg/mL ([5]; read-out: inhibition of sulfate incorporation, NCDP proteins): ~70%
